Data reported in article PMC12040169 (PLOS Biology, 2025).

Test: in vitro
Details: human, hela cells, % viability

Structure (SMILES) | viability at 28.5 h, 10 µM [%]
Cc1[nH]c2ccccc2c1/C=C1/C(=N)N2C(SCc3ccccc3)=NSC2=NC1=O [CBK265291] | 90
Cc1cc(NC(=O)N(Cc2cnn(C)c2)CC(C)C)ccc1F [CBK304206] | 105
CCNS(=O)(=O)c1ccc(CCC(=O)Nc2ccc3c(c2)OCCO3)cc1 [CBK268255] | 109
Cc1ccc(C(=O)COC(=O)CCN2C(=O)C3C4CCC(C4)C3C2=O)cc1[N+](=O)[O-] (centres unmarked) [CBK264096] | 91.5
O=C(O)C1CCCN(C(=O)NCc2c(Cl)cccc2Cl)C1 (centres unmarked) [CBK161362] | 90
O=S(=O)(c1ccccc1)c1nc(N2CCNCC2)cn2ccnc12 [CBK154875T] | 94.7
CN1CCN(c2ccccc2NC(=S)NC(=O)c2ccco2)CC1 [CBK267909] | 85.2
Cn1cc(C(=O)Nc2ccccc2N2CCNCC2)c2ccccc21 [CBK034141T] | 92.2
O=S(=O)(NCc1cccnc1)N1CCOCC1 [CBK269945] | 85.1
CCN(CC)CCNC(=O)c1c(C)[nH]c(/C=C2\C(=O)Nc3ccc(F)cc32)c1C [CBK149343] | 50.7
COCCc1noc(CC2CCN(c3ncc(Cl)cn3)CC2)n1 [CBK304172] | 88.7
O=C(NCc1ccccn1)c1ccc(CNS(=O)(=O)c2cccc(C(F)(F)F)c2)cc1 [CBK267291] | 87.7
Cc1cccc(OCCCn2cncc2-c2cn(C)nc2C)c1 [CBK281766] | 90
COc1cc(OC)nc(C(NC(=O)C2CCN(Cc3ccc(N(C)C)cc3)CC2)c2ccc(F)cc2)n1 (centres unmarked) [CBK148204] | 88.9
CC(C)C(=O)Nc1cccc(-c2cn3ccsc3n2)c1 [CBK096253] | 67
O=C(C1=C(O)C(=O)N(CCCN2CCOCC2)C1c1cccnc1)c1ccco1 (centres unmarked) [CBK264528] | 102
CS(=O)(=O)c1ccc(-c2nc(N)cc3ccccc23)cc1 [CBK085724] | 96.1
CCCC1CN(C)c2ccccc2C1=O (centres unmarked) [CBK023527] | 87
CCCCCC/C=C/c1cnc2nc(NC(=O)NCC)ccc2c1 [CBK061880] | 93.3
CCC(C)C(NC(=O)Cc1c[nH]c2ccccc12)C(=O)O (centres unmarked) [CBK286720] | 91
CSCCCN1CCn2nc(CNc3cnccn3)cc2C1 [CBK307136] | 92.5
O=C(O)CC(Cc1ccccc1)(C(=O)O)c1ccccc1 (centres unmarked) [CBK287133] | 77.8
Cc1ccc(S(=O)(=O)N2CCN(Cc3cc(Br)ccc3O)CC2)cc1 [CBK264242] | 98.5

Structure (SMILES) | viability at 28.5 h, 10 µM [%]
CSc1ccc(CN2CCN(S(=O)(=O)Cc3ccccc3)CC2)cc1 [CBK264301G] | 94.2
O=C(COc1ccc(S(=O)(=O)Nc2ccc(Cl)cc2)cc1)Nc1ccccc1F [CBK268427] | 108
CCc1nn(CC(=O)N2CCCCC2C)c(=O)c2cc3occc3n12 (centres unmarked) [CBK283676] | 67.5
Cc1nc2ccccc2c2c1C(=O)N(c1cccc(C(=O)OCC(=O)c3ccccc3Cl)c1)C2=O [CBK265505] | 98.5
COc1ccc(C2(C(F)(F)F)NC(=O)N3CCN=C3S2)cc1 (centres unmarked) [CBK019170] | 106
Cc1cccc2c3c([nH]c12)CCN(C(=O)[C@@H]1C[C@@H]2C=C[C@H]1C2)C3 [CBK281656] | 93.6
Cc1ccc2[nH]c(-c3cccc(NC(=O)c4cccc(CN5CCCC5=O)c4)c3)nc2c1 [CBK285838] | 85.8
CC(C)[C@H](CO)n1c(=O)[nH]c2ncc(-c3ccc(OC(F)(F)F)cc3)nc21 [CBK065037] | 105
O=C1N[C@]2(Cc3ccccc31)CN(Cc1ccccc1)C[C@H]2CO [CBK284743] | 92.1
Cn1nnnc1SCC(=O)Nc1ccc(C(=O)O)cc1 [CBK267442] | 87.3
COc1ccc(-c2cc(NC3CCCCC3)ncn2)cc1 [CBK090904] | 96.8
CS(=O)(=O)N1CC2(CCN(Cc3ccccc3)CC2)c2ccccc21 [CBK084003] | 89.9
O=C(CC(C(=O)O)C1CCCO1)Nc1ccc(Cl)cc1Cl (centres unmarked) [CBK261509] | 86.2
COc1ccc(Cc2n[nH]c(=O)n2-c2ccccc2)cc1 [CBK000112] | 107
CC1COCC(C)N1c1ccc2nnc(-c3ccc(C(F)(F)F)cc3)n2n1 (centres unmarked) [CBK009548] | 81.7
Cc1cccc2c(C(=O)OCC(=O)c3ccc([N+](=O)[O-])cc3)cc(-c3ccc(Cl)cc3)nc12 [CBK264088] | 94.5
O=C(O)COc1ccc(NC(=O)Cc2ccc([N+](=O)[O-])cc2)cc1 [CBK268573] | 104
O=[N+]([O-])c1ccccc1/C=C/CN1CCN(CCO)CC1 [CBK261863] | 85.8
COc1cc(CNC2CCCCC2)cc(I)c1OCC(N)=O [CBK269158C] | 117
Cc1ccc(-c2nc(Nc3ccc(Br)cc3)sc2CC(=O)O)cc1 [CBK264251] | 101
CN1C(=O)CC2(C1=O)C(=O)N(CC(=O)O)c1ccc(Cl)cc12 (centres unmarked) [CBK076107] | 98.8
CCOc1ccccc1C(=O)N1CCCCC1c1ncc(C(=O)Nc2ccccc2)c(C)n1 (centres unmarked) [CBK285840] | 103
O=C(Cn1nnc2ccccc2c1=O)NC(Cc1ccccc1)c1ccccc1 (centres unmarked) [CBK296933] | 96.6

Structure (SMILES) | viability at 28.5 h, 10 µM [%]
COc1ccc(CNC(=O)CSc2cnn[nH]2)cc1 [CBK269881] | 85.6
Cc1nc2ccc(Cl)cn2c1CN1CCN(C2CCCC2)C(=O)C1 [CBK281452] | 84
CC(NC(=O)CCC(=O)O)C12CC3CC(CC(C3)C1)C2 (centres unmarked) [CBK287105] | 97.9
COc1ccc(-c2c(C)nc(N)nc2-c2ccc(OC)cc2O)cc1 [CBK288186] | 85.7
CC(CNC(=O)COc1cc(Cl)c(Cl)cc1Cl)CN(C)C (centres unmarked) [CBK266766] | 88.1
COc1ccc(C(C)C)cc1-c1cncc(N2CCCCC2CCO)n1 (centres unmarked) [CBK037897] | 94.4
O=C(c1ccc(Nc2ccnc3cc(C(F)(F)F)ccc23)cc1)N1CCC(O)(c2cccc(C(F)(F)F)c2)CC1 [CBK012467] | 91.6
COCCNC(=O)c1cc(-c2ccccc2)cnc1N(C)S(C)(=O)=O [CBK076484] | 85.8
Cc1cc(C)n(-c2cccc(C(=O)NCCn3ccnc3)c2)n1 [CBK281585] | 109
CCCCN1CCCC1c1c[nH]c2ccccc12 (centres unmarked) [CBK023773G] | 93
CCc1nc2c(OCC(=O)N3CCOCC3)cccn2c1N(C)C(=O)c1ccco1 [CBK147436] | 92
Cn1cc(CCNC(=O)N2CCN(Cc3ccsc3)CC2)cn1 [CBK305692] | 88.6
c1ccc(CNc2nccn3ccnc23)nc1 [CBK037526] | 104
NC(=O)C1CCN(C(=O)c2cc3c(=O)n4ccccc4nc3s2)CC1 [CBK296938] | 89.9
O=C(O)c1ccc(CSc2nc(-c3ccccc3)cc(C(F)(F)F)n2)o1 [CBK269514] | 105
CC(=O)NC1CCN(CC2(c3cccc(F)c3)CCCC2)CC1 [CBK282590] | 95.7
CC1CCN(CC(O)c2ccc3c(c2)CCN3C(=O)C2CC2)CC1 (centres unmarked) [CBK282927] | 102
O=C(CCCc1nc2ccccc2c(=O)[nH]1)NC(Cc1ccc(O)cc1)C(=O)O (centres unmarked) [CBK297130] | 101
CS(=O)(=O)N(CC(=O)Nc1ccc(C(F)(F)F)cc1)Cc1ccc(Cl)cc1 [CBK268915] | 99.7
Cc1nc(C)c(CC(=O)NC(c2ccncc2)c2cccs2)s1 (centres unmarked) [CBK281439] | 96.6
Cc1cc(F)ccc1S(=O)(=O)NCC1CC(=O)Nc2ccccc21 (centres unmarked) [CBK305210] | 86.5
COc1ccc(CNC(=O)NC(=O)C2CCN(S(C)(=O)=O)CC2)c(OC)c1 [CBK034861] | 89.4
CN1CCN(CC(=O)N2N=C(c3c(-c4ccccc4)c4cc(Cl)ccc4[nH]c3=O)CC2c2ccccc2)CC1 (centres unmarked) [CBK267545] | 88.9

Structure (SMILES) | viability at 28.5 h, 10 µM [%]
CC(C(=O)Nc1cccc2[nH]ccc12)c1ccc(Cl)cc1 (centres unmarked) [CBK159647] | 107
CCOCCCn1c(SCC(=O)NC(Cc2ccccc2)C(=O)O)nc2ccccc2c1=O (centres unmarked) [CBK297132] | 90.5
Cc1nc(N)nc(NCCC2CCCN(C)C2)c1Cl (centres unmarked) [CBK307445] | 88.6
CCCC(=O)c1ccc(S(=O)(=O)N2CCCN(Cc3cccnc3N3CCOCC3)CC2)cc1 [CBK062900] | 93.9
O=C(O)CCCC(=O)Nc1ccccc1-c1ccccc1 [CBK231405] | 94.9
CCc1nc(-c2ccc(C)c(S(=O)(=O)N3CCN(c4ccccc4)CC3)c2)no1 [CBK294434] | 98.3
O=C(O)c1cccc(-c2nccnc2NCC2CC2)c1 [CBK038043] | 95.5
C/C(=N\NC(=O)c1nonc1N)c1ccc(Cl)cc1 [CBK025664] | 107
Cc1occc1-c1nnc(SC2CCCCN(C(=O)c3ccc(Cl)cc3)C2=O)n1C (centres unmarked) [CBK296990] | 97.9
Cc1ccccc1NC(=O)N1CCC2(CC1)NCCc1c2[nH]c2ccc(O)cc12 [CBK046904] | 91
Nc1nnnn1CC(=O)N/N=C/c1cc2c(cc1[N+](=O)[O-])OCO2 [CBK262187] | 117
Cc1ccccc1N1CCN(Cc2cccc(C(=O)O)c2)CC1 [CBK286890] | 90.8
CCC(=O)Nc1ccc(O)cc1C(=O)O [CBK126818] | 92.8
Cc1noc(C)c1S(=O)(=O)Nc1ccsc1C(=O)Nc1ccc(F)cc1 [CBK004604] | 86.3
CCCC(=O)NC[C@H]1CC[C@H](c2nnc(-c3ccsc3)o2)CC1 [CBK283362] | 98.9
CC(C)c1nccc(CN2CCC(CCN3CCCC3=O)CC2)n1 [CBK306887] | 116
O=C(O)CCC(=O)Nc1ccc(S(=O)(=O)Nc2ccc(I)cc2)cc1 [CBK264866] | 99.9
CO[C@H]1CN(C)C[C@@H]1NC(=O)c1cccc2c1NCCC2 [CBK307107] | 106
COc1ccc(C(NC(=O)C2CCN(Cc3c[nH]c4ccccc34)CC2)c2ccccn2)cc1 (centres unmarked) [CBK148033] | 121
Cc1cc(C)n(-c2ccccc2O)n1 [CBK026493] | 102
